Tests used:
[1] = tested on: IL-19, CXCL1, and CCL26 gene expression; assay: IL-13 triggered proinflammatory gene expression in HaCaT keratinocytes; assay type: cell-based, human; details: IL-13 10 ng/mL
Excerpt: As AhR activation is beneficial for pathologies including chronic inflammatory skin diseases,[74] we assessed the potential anti-inflammatory role of our ligands by cotreating HaCaT keratinocytes with the proinflammatory cytokine IL-13 and a selection of 6-ICZs (Figure 7a).
Figure 7 Anti-inflammatory effect of the 6-ICZs. (a) Structure of the tested compounds and the control tapinarof (T). (b) IL-13 triggered gene expression of proinflammatory IL-19, CXCL1, and CCL26 expressed as fold of 0.1% DMSO control. HaCaT keratinocytes were treated with IL-13 (10 ng/mL) for 24 h, then either untreated (−) or treated with positive control T (1 μM) or 6-ICZs (1 μM). n = 3–4. For statistical analysis an unpaired t-test was performed and data are shown as mean ± SEM (*, p ≤ 0.05 compared to IL-13 (10 ng/mL)).
Cell culture and treatment
Human HaCaT and HaCaT-AhR-deficient keratinocytes were cultured in DMEM low glucose (1 g/l) medium (PAN Biotech, Aidenbach, Germany) supplemented with 10% (v/v) fetal bovine serum (PAN Biotech) and 1% (v/v) antibiotics/antimycotics (PAN Biotech). […]
Quantitative real-time PCR
The isolation of total RNA, reverse transcription, and quantitative real-time PCR was conducted as described previously.[26] […]
AhR-dependent reporter gene activity was determined in human HepG2 cells stably transfected with an XRE -harboring luciferase plasmid (XRE-HepG2 cells). […]

Jurkat cells = assay: Cell viability (Annexin V-APC, flow cytometry) in Jurkat cells; assay type: cell-based; details: 24 h
Protocol: A phosphatidylserine exposure was used to determine cell viability. Cells were washed with PBS, pelleted, and then incubated with annexin binding buffer containing Annexin V-APC (Life Technologies) for 15 min in the dark. Then, samples were analyzed by flow cytometry using FACSCanto II and FACSDiva (BD Biosciences, Franklin Lakes, NJ, USA). Data represents the percentage of non - apoptotic cells (Ann -APC-).
The cytotoxicity of a selection of the synthesized compounds was assessed after 24 hours of treatment in two human cell lines, Jurkat and HEK293T, coming from either tumoral T-cell lymphocytes or non-tumoral embryonic kidney fibroblasts, respectively. […]
the pro-apoptotic activity was not significant below 10 µM for most compounds in both cell lines, except for 5i, 5k and 5l in both cell lines, as well as 9a in Jurkat and 5e HEK293T cells (Figure S35A-B).
Moreover, the cytotoxicity of compounds 4d, 5b, 5h, 8, 10, and 12d at a higher concentration (100 µM) was assessed in both cell lines, Jurkat and HEK293T. The cytotoxicity of compounds 5b, 5h, and 12d could not be properly tested as the compounds were not soluble […]
effects observed for compound 4d in Jurkat cells and compound 8 in HEK293T cells (Figure S35C).
Figure S35. A) Jurkat and B) HEK293T cells were treated with 1 and 10 µM doses of the corresponding compound for 24 hours. Indicated doses of fluorizoline were used as a positive control of cell death. C) Jurkat and HEK293T cells were treated with 100 µM of the corresponding compound for 24 hours. Viability was measured by flow cytometry, and it is expressed as the mean ± SEM (n = 3) of the percentage of non -apoptotic cells (Ann-APC-). * p < 0.05, ** p < 0.01 *** p < […]
(1 picture or pasted object on this page, not shown here)

CCOc1c2[nH]c3ccccc3c2cc2[nH]c3ccccc3c12 [compound 8, 6-ethoxy-ICZ]
anti-inflammatory potency compared with positive control tapinarof ([1]; 1 μM): slightly more potent than the positive control tapinarof
IL-13-triggered induction of IL-19, CXCL1, and CCL26 gene expression ([1]; 24 h, compound 1 μM): significantly reduced
cytotoxicity / pro-apoptotic activity at 100 µM (Jurkat cells): minimal pro-apoptotic activity
